Source: patent US20250144186A1, “NOVEL THERAPEUTIC USES OF GARDNERELLA ENDOLYSINS” (priority 2022, published 2025)
Converted amounts (≈) assume the structure as drawn. Like-named read-outs stand apart in the source and are kept apart here.

Experiments:
Gardnerella vaginalis = experiment: microbe, parasite or virus in culture; type: cell-based; settings: Gardnerella vaginalis
Description: (§1) The minimum inhibitory concentration (MIC), which is a standard measure of the activity of antimicrobials, was determined according to the Clinical and Laboratory Standards Institute protocol (2018) Methods for Antimicrobial Susceptibility Testing of Anaerobic Bacteria (Carpenter et al., 2018). […] Controls for growth in the absence of antimicrobials were also included. OD600 was recorded by a microplate reader (Tecan, Grodig, Austria) after incubation at 37° C. for 48 h or, for some fast-growing strains, after incubation for 24 h. Absence of growth was defined as OD600≤0.14. […] MIC readout and MBC99.5 spotting were performed after 72 h incubation for H2B10B11.
(§2) However, topical intravaginal antibiotic administration is recommended for BV therapy, which allows to reach concentrations of active ingredients in the mg/mL range. […] Abbreviations: n.d., not determined; SJHB, St. Jan Hospital Bruges.
(§3) MIC90 is defined as the MIC value for 90% of the tested strains. For PM-477 (H2B10), the resistance breakpoint is not defined, therefore a “% resistant” is not defined (n.d.).

Gardnerella leopoldii = experiment: MIC / MBC99.5 assessment in suspension; type: cell-based; settings: Gardnerella leopoldii
Description: as §1, §2, §3

Gardnerella piotii = experiment: MIC / MBC99.5 assessment in suspension; type: cell-based; settings: Gardnerella piotii
Description: as §1, §2, §3

G. swidsinskii biofilm = type: cell-based, Gardnerella swidsinskii
Description: (§4) Gardnerella spp. (see figures for strain specification) was resuspended in brain heart infusion broth supplemented with 2% (w/v) gelatin, 0.5% yeast extract (w/v), 0.1% starch (w/v) and 0.25% glucose (w/v) (sBHIG). Passaged strains were resuspended in unbuffered NYCB supplemented with 1% glucose (w/v) (sNYCB). The OD600 was set to 0.1 (approx. 10^7-10^8 CFU/mL) and the cell suspension was diluted 1:10 in growth medium as input for biofilm formation. A total of 200 μL of the respective bacterial suspensions was added to 96-well flat bottom plates (tissue-culture treated, Sigma-Aldrich). The biofilms were grown under anaerobic conditions at 37° C. for 40 to 72 hours, depending on the isolate. Subsequently, the supernatant was removed, and the biofilm was treated with antimicrobials dissolved in sBHIG (at pH 5 for treatment with PM-477 (H2B10), and unbuffered for treatment with antibiotics) in 100 μL and incubated anaerobically at 37° C. for another 24 hours. After the treatment, the biofilms were washed twice with 200 μL 1x PBS and dissolved by vigorous pipetting (40x up and down). Serial dilutions of the dissolved cells were spotted on chocolate agar plates. The plates were incubated anaerobically for two to three days and the minimum biofilm eradication concentration (MBEC) of the endolysin or the antibiotics in use were calculated.
Gardnerella dominated biofilms covering the human vaginal epithelial cells are now generally considered as a hallmark of BV. Thus, it was tested how effective antibiotics and PM-477 (H2B10) are in penetrating and killing in vitro pre-formed, 40-72 h old biofilms of various Gardnerella strains.

passaged G. piotii = experiment: MIC on strains passaged with MDZ-OH; type: cell-based, Gardnerella piotii; settings: Gardnerella piotii, 48 h, read-out: MIC passaged
Description: as §1, with “H2B10B11. MBC99.5 is the minimum concentration of an antibacterial agent that results in bacterial death of all cells in suspension up to a defined limit of detection, resulting in killing of at least 99.5% of bacteria.” for “H2B10B11.”
The final volume of the reaction was 100 µL and the reactions were performed in triplicate in 384-well plates. The OD600 was measured using a microplate reader (Tecan, Grodig, Austria) to generate timepoint 0 h baseline values. […] In each round, the input CFU/mL was determined by quantitative plating.
The susceptibility of Gardnerella strains before and after 8 to 9-times passaging with sub-MIC concentrations of MZD or MDZ-OH is shown in Table 4 below. All MICs determined after 48 h of incubation.

[1] = system: passaged G. vaginalis biofilm; experiment: MBEC on biofilms of passaged strains; type: cell-based, Gardnerella vaginalis
Description: as §4
All MICs determined after 48 h of incubation.

`Cc1ncc([N+](=O)[O-])n1CCO` [MDZ, metronidazole] gave an MIC90 (Gardnerella vaginalis) of 64 µg/mL (≈ 374 µM), an MIC (Gardnerella vaginalis; 48 h, read-out: MIC before passaging, G. vaginalis (ATCC 14018T), 48 h incubation) of 8 µg/mL (≈ 46.7 µM) and an MIC (Gardnerella vaginalis; 48 h, read-out: MIC before passaging, G. vaginalis (UGent 09.07), 48 h incubation) of 64 µg/mL (≈ 374 µM). For the same compound, the MIC (Gardnerella vaginalis; 48 h, read-out: MIC before passaging, G. vaginalis (UGent BV50), 48 h incubation) was 32 µg/mL (≈ 187 µM), the MBC (Gardnerella vaginalis; ATCC14018, 24 h, read-out: MBC99.5, G. vaginalis (Gv9) ATCC 14018(T), reduces CFU by 99.5% within 24 h) was 16 µg/mL (≈ 93.5 µM) and the MIC (Gardnerella vaginalis; ATCC14018, G. vaginalis (Gv9) ATCC 14018(T), suspension) was 8 µg/mL (≈ 46.7 µM). The MIC (Gardnerella vaginalis; G. vaginalis (BV50) UGent BV50.1, suspension) was 32 µg/mL (≈ 187 µM), the MIC (Gardnerella vaginalis; G. vaginalis (FB049) UGent FB049-01, suspension) was 16 µg/mL (≈ 93.5 µM) and the MIC (Gardnerella vaginalis; G. vaginalis (FB061) UGent FB061-03, suspension, read-out: MIC) was 8 µg/mL (≈ 46.7 µM). For the same compound, the MBC (Gardnerella vaginalis; G. vaginalis (FB061) UGent FB061-03, read-out: MBC99.5) was 32 µg/mL (≈ 187 µM), the MIC (Gardnerella vaginalis; G. vaginalis (Gv1) UGent 09.07, suspension, read-out: MIC) was 64 µg/mL (≈ 374 µM) and the MBC (Gardnerella vaginalis; G. vaginalis (Gv1) UGent 09.07, read-out: MBC99.5) was 512 µg/mL (≈ 2990 µM). For the same compound, the MIC (Gardnerella vaginalis; G. vaginalis (Gv5) UGent 09.01, suspension, read-out: MIC) was 8 µg/mL (≈ 46.7 µM), the MBC (Gardnerella vaginalis; G. vaginalis (Gv5) UGent 09.01, read-out: MBC99.5) was 512 µg/mL (≈ 2990 µM) and the MIC (Gardnerella vaginalis; G. vaginalis (Gv8) UGent 25.49, suspension, read-out: MIC) was 8 µg/mL (≈ 46.7 µM). The MBC (Gardnerella vaginalis; G. vaginalis (Gv8) UGent 25.49, read-out: MBC99.5) was 32 µg/mL (≈ 187 µM), the “MIC Range” value (Gardnerella vaginalis; N=8 strains) was 8 to 64 µg/mL and the MBC (Gardnerella vaginalis; read-out: MBC99.5, G. vaginalis (BV111) UGent BV111.5) was 64 µg/mL (≈ 374 µM). The MBC (Gardnerella vaginalis; read-out: MBC99.5, G. vaginalis (FB049) UGent FB049-01) was 64 µg/mL (≈ 374 µM), the MIC (Gardnerella leopoldii; G. leopoldii (BV217) UGent BV217.1, suspension, read-out: MIC) was 256 µg/mL (≈ 1500 µM) and the “N resistant (%)” value (Gardnerella leopoldii; N=3, resistance ≥32 μg/mL MDZ) was 100%. It also gave a N resistant (Gardnerella leopoldii; N=3, resistance ≥32 μg/mL MDZ, ≥8 μg/mL CLI) of 3, an MIC90 (Gardnerella leopoldii; N=3 strains, read-out: MIC90) greater than 256 µg/mL and an MBC (Gardnerella leopoldii; read-out: MBC99.5) of 512 µg/mL (≈ 2990 µM). For the same compound, the MIC (Gardnerella piotii; 48 h, read-out: MIC before passaging) was 32 µg/mL (≈ 187 µM), the MBC (Gardnerella piotii; G. piotii (BV049) UGent BV049.1) was 32 µg/mL (≈ 187 µM) and the MBC (Gardnerella piotii; G. piotii (BV154) UGent BV154.1) was 32 µg/mL (≈ 187 µM). It also gave an MBC (Gardnerella piotii; G. piotii (FB041) UGent FB041) of 64 µg/mL (≈ 374 µM), an MIC (Gardnerella piotii; G. piotii (FB041) UGent FB041, suspension, read-out: MIC) of 32 µg/mL (≈ 187 µM) and an MBC (Gardnerella piotii; G. piotii (Gp17) UGent 18.01(T)) of 64 µg/mL (≈ 374 µM). The MIC (Gardnerella piotii; G. piotii (Gp17) UGent 18.01(T), suspension, read-out: MIC) was 32 µg/mL (≈ 187 µM), the MIC (Gardnerella piotii; G. piotii (Gp22) UGent 21.28, suspension, read-out: MIC) was 64 µg/mL (≈ 374 µM) and the MBC (Gardnerella piotii; G. piotii (P80275) UGent P80275) was 64 µg/mL (≈ 374 µM). The MIC (Gardnerella piotii; G. piotii (P80275) UGent P80275, suspension, read-out: MIC) was 16 µg/mL (≈ 93.5 µM), the “N resistant (%)” value (Gardnerella piotii; N=7, resistance ≥32 μg/mL MDZ) was 57% and the N resistant (Gardnerella piotii; N=7, resistance ≥32 μg/mL MDZ, ≥8 μg/mL CLI) was 4. The MBC (Gardnerella piotii; G. piotii (BV140) UGent BV140.2) was greater than 512 µg/mL, the MBEC (G. swidsinskii biofilm; ancestor G. swidsinskii GS 9838-1, pre-formed biofilm) was 32 µg/mL and the MBEC (G. swidsinskii biofilm; ancestor G. swidsinskii UGent BV 7.1, pre-formed biofilm) was 32 µg/mL. For the same compound, the MIC (passaged G. piotii) was greater than 2050 µg/mL, the MBEC passaged ([1]; G. vaginalis (ATCC 14018T) passaged with MDZ) was greater than 2048 µg/mL and the MBEC passaged ([1]; G. vaginalis (UGent 09.07) passaged 8 times with MDZ-OH) was greater than 2048 µg/mL. For the same compound, the MBEC passaged ([1]; G. vaginalis (UGent BV50) passaged with MDZ-OH) was greater than 2048 µg/mL.
